Test results reported in BindingDB's records for doi:10.1074/jbc.M111.274068 (Astrazeneca, 2011).

Tests used:
Settings in all cases: pH 7.35
[1] = target: Bifunctional protein GlmU (Streptococcus pneumoniae (strain ATCC BAA-255 / R6), UniProt Q8DQ18); assay: Inhibition Assay
Source text: (§1) Inhibition assay using GlmU bifuncation enzyme with various bacterial strains.

[2] = target: Bifunctional protein GlmU (Staphylococcus aureus (strain COL), UniProt Q5HIH6); assay: Inhibition Assay
Source text: as §1

[3] = target: Bifunctional protein GlmU (Haemophilus influenzae (strain ATCC 51907 / DSM 11121 / KW20 / Rd), UniProt P43889); assay: Inhibition Assay
Chain of Bifunctional protein GlmU (Haemophilus influenzae (strain ATCC 51907 / DSM 11121 / KW20 / Rd), UniProt P43889) (P43889 whole entry): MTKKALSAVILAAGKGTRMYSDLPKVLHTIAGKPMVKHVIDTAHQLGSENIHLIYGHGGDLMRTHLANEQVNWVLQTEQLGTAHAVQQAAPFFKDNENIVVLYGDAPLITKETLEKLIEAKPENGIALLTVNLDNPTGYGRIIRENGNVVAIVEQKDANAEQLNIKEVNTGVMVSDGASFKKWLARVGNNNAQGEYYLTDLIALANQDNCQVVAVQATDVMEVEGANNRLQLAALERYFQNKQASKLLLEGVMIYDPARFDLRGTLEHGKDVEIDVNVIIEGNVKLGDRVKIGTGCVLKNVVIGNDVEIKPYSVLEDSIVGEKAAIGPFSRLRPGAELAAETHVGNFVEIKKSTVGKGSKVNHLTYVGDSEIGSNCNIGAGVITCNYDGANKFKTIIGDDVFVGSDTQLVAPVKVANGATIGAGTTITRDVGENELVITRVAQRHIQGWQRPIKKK
Source text: as §1

[4] = target: Bifunctional protein GlmU (Escherichia coli (strain K12), UniProt P0ACC7); assay: Inhibition Assay
Chain of Bifunctional protein GlmU (Escherichia coli (strain K12), UniProt P0ACC7) (P0ACC7 whole entry): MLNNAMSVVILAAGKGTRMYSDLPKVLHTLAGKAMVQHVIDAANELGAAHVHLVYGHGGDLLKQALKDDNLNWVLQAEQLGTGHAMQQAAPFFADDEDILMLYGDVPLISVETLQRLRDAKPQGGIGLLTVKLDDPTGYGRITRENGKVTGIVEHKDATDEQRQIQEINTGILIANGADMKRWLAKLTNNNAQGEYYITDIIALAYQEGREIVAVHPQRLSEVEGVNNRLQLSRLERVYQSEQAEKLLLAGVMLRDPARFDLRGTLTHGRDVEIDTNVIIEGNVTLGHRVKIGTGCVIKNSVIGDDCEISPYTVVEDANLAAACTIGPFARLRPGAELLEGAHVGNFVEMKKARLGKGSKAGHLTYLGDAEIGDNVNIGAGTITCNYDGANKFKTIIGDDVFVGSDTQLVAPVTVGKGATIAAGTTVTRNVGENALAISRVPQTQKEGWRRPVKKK
Source text: as §1

[5] = target: Bifunctional protein GlmU (Escherichia coli) (UniProt P0ACC7); assay: Inhibition assay using GlmU bifuncation enzyme with various bacterial strains.
Chain of Bifunctional protein GlmU (Escherichia coli) (P0ACC7 whole entry, looked up): as the sequence (P0ACC7 whole entry) above

Chain of Bifunctional protein GlmU (Streptococcus pneumoniae (strain ATCC BAA-255 / R6), UniProt Q8DQ18) (Q8DQ18 whole entry): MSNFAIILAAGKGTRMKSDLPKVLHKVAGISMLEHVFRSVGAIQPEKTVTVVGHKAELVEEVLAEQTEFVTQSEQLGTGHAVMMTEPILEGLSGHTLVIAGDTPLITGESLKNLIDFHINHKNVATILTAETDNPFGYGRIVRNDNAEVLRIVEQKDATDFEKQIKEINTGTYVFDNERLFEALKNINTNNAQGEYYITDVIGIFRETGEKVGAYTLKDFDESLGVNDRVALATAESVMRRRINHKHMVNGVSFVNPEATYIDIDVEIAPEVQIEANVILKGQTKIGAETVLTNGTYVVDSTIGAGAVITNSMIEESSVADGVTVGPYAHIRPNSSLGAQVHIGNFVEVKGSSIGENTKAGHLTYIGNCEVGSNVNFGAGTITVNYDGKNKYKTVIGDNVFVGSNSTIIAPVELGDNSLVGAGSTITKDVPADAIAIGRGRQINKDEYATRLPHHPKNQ

Structure (SMILES) | IC50 [1] [µM] | IC50 [2] [µM] | IC50 [3] [µM] | IC50 [4] [µM] | Kd [5] [µM]
COc1cc(OC)c(S(=O)(=O)N(C)c2ccccc2)cc1NC(C)=O | > 200 | – | 6.4 | – | 1.9
COc1cc(O)c(S(=O)(=O)N2c3ccccc3CCC2C)cc1NC(=O)CCC(=O)O (stereo not drawn) [Sulfonamide, 4] | 4.7 | > 200 | 0.28 | 0.058 | –

Other lines, results leading:

IC50 [1] [µM] | IC50 [2] [µM] | IC50 [3] [µM] | IC50 [4] [µM] | Kd [5] [µM] | Structure (SMILES)
> 200 | > 200 | 7.8 | 2.1 | – | COc1cc(OC)c(S(=O)(=O)N2c3ccccc3CC2C)cc1NC(C)=O (stereo not drawn)
40 | > 200 | 0.4 | – | – | COc1cc(OC)c(S(=O)(=O)N(c2ccccc2)c2ccc(N)cc2)cc1NC(=O)CCC(=O)O [Sulfonamide, 3]
15 | > 200 | 0.023 | 0.007 | – | COc1cc(OC)c(S(=O)(=O)N2c3ccccc3Oc3ccccc32)cc1NC(=O)CCC(=O)O [Sulfonamide, 5]
